pKd: −log10 of the molar value. Converted amounts (≈) assume the structure as drawn. Where two headings read alike, the source gives them in different places.
Tests used:
TBR2 = biological target: T1, TBR2 (Homo sapiens, UniProt P37173); test: DiscoverX Kd determination; type: binding; conditions: for Kd: read-out: Kd in nM TBR2
T1 construct: T7 phage fusion (or DNA tag for qPCR if made in HEK-293); purchased DiscoverX; host or cells: E. coli (T7 phage) or HEK-293
Description: DiscoverX Kd determination: For most assays, kinase-tagged T7 phage strains were prepared in an E. coli host derived from the BL21 strain. E. coli were grown to log-phase and infected with T7 phage and incubated with shaking at 32°C until lysis. The lysates were centrifuged and filtered to remove cell debris. The remaining kinases were produced in HEK-293 cells and subsequently tagged with DNA for qPCR detection. […] The liganded beads were blocked with excess biotin and washed with blocking buffer (SeaBlock (Pierce), 1% BSA, 0.05% Tween 20, 1 mM DTT) to remove unbound ligand and to reduce non-specific binding. […] Kds were determined using an 11-point 3-fold compound dilution series with three DMSO control points. […] The compounds were then diluted directly into the assays such that the final concentration of DMSO was 0.9%. All reactions performed in polypropylene 384-well plate. Each was a final volume of 0.02 ml. […] The kinase concentration in the eluates was measured by qPCR. An 11-point 3-fold serial dilution of each test compound was prepared in 100% DMSO at 100x final test concentration and subsequently diluted to 1x in the assay (final DMSO concentration = 1%). Most Kds were determined using a compound top concentration = 30.000 nM. […] Binding constants (Kds) were calculated with a standard dose-response curve using the Hill equation: Response = Background + Signal – Background 1 + (KdHill Slope / DoseHill Slope). The Hill Slope was set to -1. Curves were fitted using a non-linear least square fit with the Levenberg-Marquardt algorithm.

ACVR2A = biological target: T2, ACVR2A (Homo sapiens, UniProt P27037); test: DiscoverX Kd determination; type: binding
T2 construct: T7 phage fusion (or DNA tag for qPCR if made in HEK-293); purchased DiscoverX; host or cells: E. coli (T7 phage) or HEK-293
Description: (§1) DiscoverX Kd determination: For most assays, kinase-tagged T7 phage strains were prepared in an E. coli host derived from the BL21 strain. E. coli were grown to log-phase and infected with T7 phage and incubated with shaking at 32°C until lysis. The lysates were centrifuged and filtered to remove cell debris. The remaining kinases were produced in HEK-293 cells and subsequently tagged with DNA for qPCR detection. Streptavidin-coated magnetic beads were treated with biotinylated small molecule ligands for 30 minutes at room temperature to generate affinity resins for kinase assays. The liganded beads were blocked with excess biotin and washed with blocking buffer (SeaBlock (Pierce), 1% BSA, 0.05% Tween 20, 1 mM DTT) to remove unbound ligand and to reduce non-specific binding. […] Test compounds were prepared as 111X stocks in 100% DMSO. Kds were determined using an 11-point 3-fold compound dilution series with three DMSO control points. […] The compounds were then diluted directly into the assays such that the final concentration of DMSO was 0.9%. All reactions performed in polypropylene 384-well plate. Each was a final volume of 0.02 ml. […] The kinase concentration in the eluates was measured by qPCR. An 11-point 3-fold serial dilution of each test compound was prepared in 100% DMSO at 100x final test concentration and subsequently diluted to 1x in the assay (final DMSO concentration = 1%). Most Kds were determined using a compound top concentration = 30.000 nM. […] Binding constants (Kds) were calculated with a standard dose-response curve using the Hill equation: Response = Background + Signal – Background 1 + (KdHill Slope / DoseHill Slope). The Hill Slope was set to -1. Curves were fitted using a non-linear least square fit with the Levenberg-Marquardt algorithm.

ACVR2B = biological target: T3, ACVR2B (Homo sapiens, UniProt Q13705); test: DiscoverX Kd determination; type: binding
T3 construct: T7 phage fusion (or DNA tag for qPCR if made in HEK-293); purchased DiscoverX; host or cells: E. coli (T7 phage) or HEK-293
Description: as §1

Chromlog D = type: physicochemical
Source text: Supplement JBM4-3-na-s005.docx, table 3: Table S3. Solubility and metabolic clearance of selected macrocyclic inhibitors. | column: Chromlog D

Solubility determination = type: physicochemical; conditions: kinetic from dmso stock, 2-hour equilibrium, room temperature
Description: Test compound from 5 mM DMSO stock solution were diluted to 250 µM either in 50 mM PBS pH 7.4 or FaSSIF pH 6.5 in triplicate. DMSO final concentration was 5%. After a 2-hour equilibrium at room temperature and under shaking, samples were centrifuged at 3000g for 10 min at room temperature. A calibration curve was prepared in LC mobile phase from the 5 mM DMSO stock solution. Samples and calibration curve were analyzed by LC with UV detection.

[1] = Microsomal incubations, mLM; type: in vitro ADME; conditions: mouse, liver microsomes, pH 7.4; microsomes 0.5 mg/ml, 0.5 μM compound; read-out: Metabolic clearance mLM
[2] = Microsomal incubations, rLM; type: in vitro ADME; conditions: rat, liver microsomes, pH 7.4; microsomes 0.5 mg/ml, 0.5 μM compound; read-out: Metabolic clearance rLM
[3] = PBS buffer, aqueous buffer, 50 mM PBS pH 7.4, 5% DMSO, read-out: Solubility in µM PBS
[4] = FaSSIF pH 6.5, 5% DMSO, read-out: Solubility in µM FaSSIF

T2 sequence (P27037 20-513): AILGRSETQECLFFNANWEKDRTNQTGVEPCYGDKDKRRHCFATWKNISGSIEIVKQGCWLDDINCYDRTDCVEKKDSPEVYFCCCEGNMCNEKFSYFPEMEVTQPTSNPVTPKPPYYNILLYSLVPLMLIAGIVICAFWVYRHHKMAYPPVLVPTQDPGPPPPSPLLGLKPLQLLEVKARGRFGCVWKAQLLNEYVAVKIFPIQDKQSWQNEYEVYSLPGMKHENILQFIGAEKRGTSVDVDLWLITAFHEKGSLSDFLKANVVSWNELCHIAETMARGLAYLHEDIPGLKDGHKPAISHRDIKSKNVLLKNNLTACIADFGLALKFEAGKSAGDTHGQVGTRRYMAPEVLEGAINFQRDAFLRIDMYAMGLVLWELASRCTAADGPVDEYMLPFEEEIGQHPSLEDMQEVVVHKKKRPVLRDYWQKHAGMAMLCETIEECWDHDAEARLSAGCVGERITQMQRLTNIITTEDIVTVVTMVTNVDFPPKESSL
T1 sequence (P37173 23-567): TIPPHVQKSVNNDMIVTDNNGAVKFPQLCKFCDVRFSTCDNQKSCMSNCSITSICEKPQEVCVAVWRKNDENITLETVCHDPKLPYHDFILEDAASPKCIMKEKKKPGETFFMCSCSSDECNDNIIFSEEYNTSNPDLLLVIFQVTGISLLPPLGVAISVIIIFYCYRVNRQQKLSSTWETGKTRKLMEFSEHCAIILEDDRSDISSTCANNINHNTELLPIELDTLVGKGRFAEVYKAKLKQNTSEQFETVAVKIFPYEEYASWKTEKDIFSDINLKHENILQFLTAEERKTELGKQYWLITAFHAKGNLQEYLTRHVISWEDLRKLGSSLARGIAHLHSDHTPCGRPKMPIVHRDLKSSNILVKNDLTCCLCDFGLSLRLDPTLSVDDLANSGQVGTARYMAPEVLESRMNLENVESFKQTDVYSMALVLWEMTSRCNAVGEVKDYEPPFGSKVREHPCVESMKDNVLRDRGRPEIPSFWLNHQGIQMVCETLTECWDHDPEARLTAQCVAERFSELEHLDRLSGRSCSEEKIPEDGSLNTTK
T3 sequence (Q13705 19-512): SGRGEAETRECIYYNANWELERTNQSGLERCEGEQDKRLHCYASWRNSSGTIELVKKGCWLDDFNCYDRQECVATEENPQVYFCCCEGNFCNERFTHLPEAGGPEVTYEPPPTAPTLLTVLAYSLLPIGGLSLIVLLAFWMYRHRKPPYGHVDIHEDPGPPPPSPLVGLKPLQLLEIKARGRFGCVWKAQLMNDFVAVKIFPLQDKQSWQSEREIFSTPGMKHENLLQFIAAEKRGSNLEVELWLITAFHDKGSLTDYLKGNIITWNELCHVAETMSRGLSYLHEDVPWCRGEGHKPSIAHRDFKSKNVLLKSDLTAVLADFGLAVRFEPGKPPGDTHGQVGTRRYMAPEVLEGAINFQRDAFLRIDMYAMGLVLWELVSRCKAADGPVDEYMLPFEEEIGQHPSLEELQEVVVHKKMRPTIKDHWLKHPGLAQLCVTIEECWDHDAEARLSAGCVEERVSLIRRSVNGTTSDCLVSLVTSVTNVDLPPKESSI

Row | Compound | pKd (TBR2) | Kd (ACVR2A) [nM] | Kd (ACVR2B) [nM] | chromatographic logD (Chromlog D) | solubility at 2 h (Solubility determination; [3]) [µM] | solubility at 2 h (Solubility determination; [4]) [µM] | microsomal CLint at 0.5 μM [1] [µL/min/mg] | microsomal CLint at 0.5 μM [2] [µL/min/mg] | Kd (TBR2) [nM]
1 | c1ccc2c(-c3cnn4cc(-c5ccc(N6CCNCC6)cc5)cnc34)ccnc2c1 [LDN-193189, reference compound] | 7.59 | 12 | 11 | 2.7 | 5 (≈ 2.03 µg/mL) | 49 (≈ 19.9 µg/mL) | 95 | 185 | 
2 | Clc1cc2cc(c1)-c1cnn3ccc(nc13)NCCOCCO2 [OD36] |  | 3000 | 90 | 5.4 | 2 (≈ 0.662 µg/mL) | 212 (≈ 70.1 µg/mL) | 207 | 74 | 680
3 | Cc1cc2cc(c1)-c1cnn3ccc(nc13)NCCNC(=O)CCN(C)C2 [OD52] |  | 590 | 220 | 3.9 | 140 (≈ 51 µg/mL) | 240 (≈ 87.5 µg/mL) | 84 | 32 | 2500

— article PMC6874179, “Development of Macrocycle Kinase Inhibitors for ALK2 Using Fibrodysplasia Ossificans Progressiva‐Derived Endothelial Cells” (JBMR Plus, 2019)
